Laboratory results taken from the NIST ThermoML archive (doi:10.1016/j.fluid.2006.10.016).
Numbers after ± are expanded uncertainties.

Assay: activity coefficient (dimensionless); of the first substance listed, at infinite dilution; xn = mol fraction of the nth substance listed
Conditions: Liquid, x1 = 0

In the case of `CCCCCCCCCC` [decane] + CCCC[n+]1ccc(C)cc1.F[B-](F)(F)F, the activity coefficient (297 K) is reported as 491 ± 94, the activity coefficient (307 K) is reported as 430 ± 82 and the activity coefficient (316 K) is reported as 389 ± 74. The activity coefficient (325 K) was 359 ± 68, the activity coefficient (335 K) was 320 ± 61 and the activity coefficient (344 K) was 283 ± 54.

With `CCCCCCCCC` [nonane] + CCCC[n+]1ccc(C)cc1.F[B-](F)(F)F the activity coefficient (297 K) was 309 ± 59, the activity coefficient (307 K) was 275 ± 52 and the activity coefficient (316 K) was 241 ± 46. The activity coefficient (325 K) was 229 ± 43, the activity coefficient (335 K) was 201 ± 38 and the activity coefficient (344 K) was 201 ± 38.

With `CCCCCCCC` [octane] + CCCC[n+]1ccc(C)cc1.F[B-](F)(F)F the activity coefficient (297 K) was 182 ± 34, the activity coefficient (307 K) was 170 ± 32 and the activity coefficient (316 K) was 158 ± 30. For the same compound, the activity coefficient (325 K) was 142 ± 27, the activity coefficient (335 K) was 124 ± 23 and the activity coefficient (344 K) was 119 ± 22.
